According to patent US11584737B2, “Heterocyclic compound” (TAKEDA PHARMACEUTICAL COMPANY LIMITED, priority 2018, dated 2023):

Assays:
CDK12/CycK complex = CDK12/CycK complex (Homo sapiens, UniProt Q9NYV4); test: Measurement of CDK12 inhibitory activity by binding assay (BODIPY-FL labeled AT-7519 high concentration conditions, 1320 nM); conditions: inhibitory rate against CDK12 at 1 μM test compound, 1320 nM BODIPY-FL-labeled AT-7519, 8 nM CDK12/CycK
Method: (4) Measurement of CDK12 Inhibitory Activity by Binding Assay (BODIPY-FL Labeled AT-7519 High Concentration Conditions)
His-tagged CDK12/CycK complex was blended with a binding assay buffer supplemented with BODIPY-FL labeled AT-7519, terbium-labeled streptavidin and biotin-labeled anti-histidine antibody. This solution was added to an assay plate containing a test compound dispensed therein, and the mixture was left standing for 120 min at room temperature. The final concentration of CDK12/CycK complex, BODIPY-FL-labeled AT-7519, terbium-labeled streptavidin and biotin-labeled anti-histidine antibody was set to 8 nM, 1320 nM, 0.2 nM, and 0.4 nM, respectively. The fluorescence intensity derived from terbium and BODIPY-FL was measured using Envision. The signal value of each well was determined using the TR-FRET ratio calculated by the following formula. TR-FRET ratio=(fluorescence value of BODIPY-FL)÷(fluorescence value of terbium)
The inhibitory rate (%) of the test compound against CDK12 was calculated by the following formula. Inhibitory rate (%)=(1−(TR-FRET ratio of test compound−blank)÷(control−blank))×100
The TR-FRET ratio of the CDK12 enzyme reaction mixture under compound non-addition conditions is indicated as control, and the TR-FRET ratio under 30 μM AT-7519 addition conditions is indicated as blank.
The inhibitory rate of the test compound against CDK12 at 1 μM is shown below.

A2780 cells = test: In vitro proliferation suppression test (CellTiter-Glo); assay type: cell-based, human; conditions: Homo sapiens, 72 h, A2780 cell proliferation inhibitory rate at 1 μM test compound, three days
Method: Experimental Example 4: In Vitro Proliferation Suppression Test
The proliferation suppressive activity of compound in A2780 cells was evaluated by the following method.
A2780 cells were seeded in a 384-well white plate at a cell density of 1,000 cells/40 μL/well or a 96-well white plate at a cell density of 1,000 cells/90 μL/well using an assay medium (RPMI1640 medium containing 10% fetal bovine serum (FUJIFILM Wako Pure Chemical Corporation)) and incubated at 37° C. in 5% CO2.
The next day, a test compound dissolved in dimethyl sulfoxide (DMSO) was diluted with an assay medium, the obtained compound solution was added by 40 μL/well or 10 μL/well to each well of the plate containing A2780 cells and the mixture was incubated (test compound addition group). In addition, a similar reaction was performed without adding the test compound (test compound non-addition group).
Three days later, 80 μL or 100 μL of CellTiter-Glo reagent (Promega) was added, and the mixture was stirred for 10 min. Thereafter, the luminescence of each well was measured by ARVO-MX multilabel counter (Perkin Elmer Inc.).
The proliferation inhibitory rate (%) of each test compound against A2780 cells was calculated by the following calculation formula. Proliferation inhibitory rate (%)=(1−luminescence of test compound addition group÷luminescence of test compound non-addition group)×100
The A2780 cell proliferation inhibitory rate (%) of 1 μM test compound is shown below.

CDK12/CycK complex, sequence (Q9NYV4 whole entry, species assumed): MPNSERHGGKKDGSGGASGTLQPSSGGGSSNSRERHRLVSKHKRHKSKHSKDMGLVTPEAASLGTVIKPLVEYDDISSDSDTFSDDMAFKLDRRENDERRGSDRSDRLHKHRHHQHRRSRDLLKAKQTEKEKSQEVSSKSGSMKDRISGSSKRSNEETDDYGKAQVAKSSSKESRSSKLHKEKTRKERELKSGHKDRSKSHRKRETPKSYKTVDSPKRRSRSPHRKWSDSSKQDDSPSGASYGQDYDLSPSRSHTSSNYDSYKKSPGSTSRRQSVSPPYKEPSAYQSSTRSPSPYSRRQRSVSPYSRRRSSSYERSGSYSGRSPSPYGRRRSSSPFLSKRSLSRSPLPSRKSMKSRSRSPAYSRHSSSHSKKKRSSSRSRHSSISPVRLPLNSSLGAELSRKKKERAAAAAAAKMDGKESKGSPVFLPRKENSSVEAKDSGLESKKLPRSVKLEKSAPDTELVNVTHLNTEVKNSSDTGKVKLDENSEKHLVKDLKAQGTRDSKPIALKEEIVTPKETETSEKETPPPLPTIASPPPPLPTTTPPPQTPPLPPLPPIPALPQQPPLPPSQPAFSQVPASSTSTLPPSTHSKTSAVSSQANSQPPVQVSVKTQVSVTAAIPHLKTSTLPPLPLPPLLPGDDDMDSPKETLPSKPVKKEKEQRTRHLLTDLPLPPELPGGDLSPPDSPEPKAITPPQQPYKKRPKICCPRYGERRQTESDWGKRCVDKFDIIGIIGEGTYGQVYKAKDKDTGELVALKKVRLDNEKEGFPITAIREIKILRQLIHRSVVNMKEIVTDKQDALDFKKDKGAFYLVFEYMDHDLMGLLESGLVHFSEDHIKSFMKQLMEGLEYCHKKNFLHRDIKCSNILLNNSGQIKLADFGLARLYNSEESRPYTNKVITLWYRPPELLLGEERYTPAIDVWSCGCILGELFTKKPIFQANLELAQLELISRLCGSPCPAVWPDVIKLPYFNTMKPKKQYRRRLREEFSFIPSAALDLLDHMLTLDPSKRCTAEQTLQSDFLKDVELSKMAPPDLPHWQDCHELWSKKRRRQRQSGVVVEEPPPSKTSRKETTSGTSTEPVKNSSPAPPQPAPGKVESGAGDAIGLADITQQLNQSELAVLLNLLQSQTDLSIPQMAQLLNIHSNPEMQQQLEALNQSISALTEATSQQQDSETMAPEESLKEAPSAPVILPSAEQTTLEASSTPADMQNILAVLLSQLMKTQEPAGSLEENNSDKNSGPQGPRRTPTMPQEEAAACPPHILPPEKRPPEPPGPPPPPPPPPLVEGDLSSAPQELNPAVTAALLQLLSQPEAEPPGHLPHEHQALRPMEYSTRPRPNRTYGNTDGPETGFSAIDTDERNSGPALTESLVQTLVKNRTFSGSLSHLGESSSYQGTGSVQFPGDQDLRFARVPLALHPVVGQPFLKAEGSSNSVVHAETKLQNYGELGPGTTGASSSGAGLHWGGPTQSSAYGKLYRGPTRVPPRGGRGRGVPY
CDK12/CycK complex, sequence (O75909 whole entry partner, species assumed): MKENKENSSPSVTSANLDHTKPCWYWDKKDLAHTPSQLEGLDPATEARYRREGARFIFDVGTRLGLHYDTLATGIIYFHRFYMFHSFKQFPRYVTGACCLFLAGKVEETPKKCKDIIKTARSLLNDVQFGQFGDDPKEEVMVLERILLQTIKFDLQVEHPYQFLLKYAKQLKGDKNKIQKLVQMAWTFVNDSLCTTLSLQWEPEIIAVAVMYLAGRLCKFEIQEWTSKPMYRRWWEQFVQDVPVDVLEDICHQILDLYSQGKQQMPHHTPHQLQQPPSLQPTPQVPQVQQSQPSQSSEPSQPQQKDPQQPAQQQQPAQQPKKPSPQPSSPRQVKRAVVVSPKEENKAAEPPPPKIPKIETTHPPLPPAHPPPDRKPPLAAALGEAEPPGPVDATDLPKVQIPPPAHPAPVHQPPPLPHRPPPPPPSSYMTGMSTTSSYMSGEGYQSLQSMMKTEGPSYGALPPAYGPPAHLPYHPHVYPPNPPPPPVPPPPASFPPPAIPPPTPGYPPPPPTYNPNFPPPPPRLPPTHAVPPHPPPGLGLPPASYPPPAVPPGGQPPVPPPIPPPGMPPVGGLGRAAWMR

SMILES	inhibition at 1 µM (CDK12/CycK complex)	inhibition at 1 µM (A2780 cells)
COc1ncc(-c2ccc(N(C(=O)NCC(F)F)[C@H]3CC[C@H](Nc4ncc(C(F)(F)F)c(-c5n[nH]cc5Cl)n4)CC3)nc2)cn1 [Example 693, 1-(trans-4-((4-(4-chloro-1H-pyrazol-3-yl)-5-(trifluoromethyl)pyrimidin-2-yl)amino)cyclohexyl)-3-(2,2-difluoroethyl)-1-(5-(2-methoxypyrimidin-5-yl)pyridin-2-yl)urea]	100%	98%
COc1ncc(-c2ccc(N(C(=O)NCC(F)(F)F)[C@H]3CC[C@H](Nc4ncc(C(F)(F)F)c(-c5n[nH]cc5Cl)n4)CC3)nc2)cn1 [Example 729, 1-(trans-4-((4-(4-chloro-1H-pyrazol-3-yl)-5-(trifluoromethyl)pyrimidin-2-yl)amino)cyclohexyl)-1-(5-(2-methoxypyrimidin-5-yl)pyridin-2-yl)-3-(2,2,2-trifluoroethyl)urea]	92%	98%
COc1ncc(-c2cnc(N(C(=O)NCC(C)(F)F)[C@H]3CC[C@H](Nc4ncc(C(F)(F)F)c(-c5n[nH]cc5Cl)n4)CC3)cn2)cn1 [Example 740, 1-(trans-4-((4-(4-chloro-1H-pyrazol-3-yl)-5-(trifluoromethyl)pyrimidin-2-yl)amino)cyclohexyl)-3-(2,2-difluoropropyl)-1-(5-(2-methoxypyrimidin-5-yl)pyrazin-2-yl)urea]	86%	96%
COc1ncc(-c2cnc(N(C(=O)NCC3(F)CC3)[C@H]3CC[C@H](Nc4ncc(C(F)(F)F)c(-c5n[nH]cc5Cl)n4)CC3)cn2)cn1 [Example 742, 1-(trans-4-((4-(4-chloro-1H-pyrazol-3-yl)-5-(trifluoromethyl)pyrimidin-2-yl)amino)cyclohexyl)-3-((1-fluorocyclopropyl)methyl)-1-(5-(2-methoxypyrimidin-5-yl)pyrazin-2-yl)urea]	87%	96%
COc1ncc(-c2cnc(N(C(=O)NCC(F)(F)F)[C@H]3CC[C@H](Nc4ncc(C(F)(F)F)c(-c5n[nH]cc5Cl)n4)CC3)cn2)cn1 [Example 743, 1-(trans-4-((4-(4-chloro-1H-pyrazol-3-yl)-5-(trifluoromethyl)pyrimidin-2-yl)amino)cyclohexyl)-1-(5-(2-methoxypyrimidin-5-yl)pyrazin-2-yl)-3-(2,2,2-trifluoroethyl)urea]	81%	95%
COc1ncc(-c2cnc(N(C(=O)NCC(F)F)[C@H]3CC[C@H](Nc4ncc(C(F)(F)F)c(-c5n[nH]cc5Cl)n4)CC3)cn2)cn1 [Example 744, 1-(trans-4-((4-(4-chloro-1H-pyrazol-3-yl)-5-(trifluoromethyl)pyrimidin-2-yl)amino)cyclohexyl)-3-(2,2-difluoroethyl)-1-(5-(2-methoxypyrimidin-5-yl)pyrazin-2-yl)urea]	92%	97%
CCNC(=O)N(c1cnc(-c2cnn(C)c2)cn1)[C@H]1CC[C@H](Nc2ncc(C(F)(F)F)c(-c3ccn(C(F)F)n3)n2)CC1 [Example 764, 1-(trans-4-((4-(1-(difluoromethyl)-1H-pyrazol-3-yl)-5-(trifluoromethyl)pyrimidin-2-yl)amino)cyclohexyl)-3-ethyl-1-(5-(1-methyl-1H-pyrazol-4-yl)pyrazin-2-yl)urea]	91%	95%
COc1ncc(-c2cnc(N(C(=O)OCC(F)F)[C@H]3CC[C@H](Nc4ncc(C(F)(F)F)c(-c5cncc(S(C)(=O)=O)c5)n4)CC3)cn2)cn1 [Example 766, 2,2-difluoroethyl (trans-4-((4-(5-(methanesulfonyl)pyridin-3-yl)-5-(trifluoromethyl)pyrimidin-2-yl)amino)cyclohexyl) (5-(2-methoxypyrimidin-5-yl)pyrazin-2-yl)carbamate]	96%	99%
COc1ncc(-c2cnc(N(C(=O)OCCN(C)C)[C@H]3CC[C@H](Nc4ncc(C(F)(F)F)c(-c5cncc(S(C)(=O)=O)c5)n4)CC3)cn2)cn1 [Example 767, 2-(dimethylamino)ethyl (trans-4-((4-(5-(methanesulfonyl)pyridin-3-yl)-5-(trifluoromethyl)pyrimidin-2-yl)amino)cyclohexyl) (5-(2-methoxypyrimidin-5-yl)pyrazin-2-yl)carbamate]	102%	99%
CCCC(=O)N(c1cnc(-c2cnc(OC)nc2)cn1)[C@H]1CC[C@H](Nc2ncc(C(F)(F)F)c(-c3cncc(S(C)(=O)=O)c3)n2)CC1 [Example 798, N-(trans-4-((4-(5-(methanesulfonyl)pyridin-3-yl)-5-(trifluoromethyl)pyrimidin-2-yl)amino)cyclohexyl)-N-(5-(2-methoxypyrimidin-5-yl)pyrazin-2-yl)butanamide]	92%	99%
CCNC(=O)N(c1cnc(-c2cnc(OC)nc2)cn1)[C@H]1CC[C@H](Nc2ncc(C(F)(F)F)c(-c3cncc(S(C)(=O)=O)c3)n2)CC1 [Example 799, 3-ethyl-1-(trans-4-((4-(5-(methanesulfonyl)pyridin-3-yl)-5-(trifluoromethyl)pyrimidin-2-yl)amino)cyclohexyl)-1-(5-(2-methoxypyrimidin-5-yl)pyrazin-2-yl)urea]	96%	99%
COc1ncc(-c2cnc(N(C(=O)NCC(C)(C)O)[C@H]3CC[C@H](Nc4ncc(C(F)(F)F)c(-c5ccn(C(F)F)n5)n4)CC3)cn2)cn1 [Example 804, 1-(trans-4-((4-(1-(difluoromethyl)-1H-pyrazol-3-yl)-5-(trifluoromethyl)pyrimidin-2-yl)amino)cyclohexyl)-3-(2-hydroxy-2-methylpropyl)-1-(5-(2-methoxypyrimidin-5-yl)pyrazin-2-yl)urea]	94%	96%

Further lines, with some results ahead:

inhibition at 1 µM (CDK12/CycK complex)	SMILES	inhibition at 1 µM (A2780 cells)
99%	CCCC(=O)N(c1cnc(-c2cnn(C)c2)cn1)[C@H]1CC[C@H](Nc2ncc(C(F)(F)F)c(-c3cncc(S(C)(=O)=O)c3)n2)CC1 [Example 814, N-(trans-4-((4-(5-(methanesulfonyl)pyridin-3-yl)-5-(trifluoromethyl)pyrimidin-2-yl)amino)cyclohexyl)-N-(5-(1-methyl-1H-pyrazol-4-yl)pyrazin-2-yl)butanamide]	–
99%	Cn1cc(-c2cnc(N(C(=O)OCC(F)F)[C@H]3CC[C@H](Nc4ncc(C(F)(F)F)c(-c5cncc(S(C)(=O)=O)c5)n4)CC3)cn2)cn1 [Example 820, 2,2-difluoroethyl (trans-4-((4-(5-(methanesulfonyl)pyridin-3-yl)-5-(trifluoromethyl)pyrimidin-2-yl)amino)cyclohexyl) (5-(1-methyl-1H-pyrazol-4-yl)pyrazin-2-yl)carbamate]	99%
106%	COc1ncc(-c2cnc(N(C(=O)CCC(F)F)[C@H]3CC[C@H](Nc4ncc(C(F)(F)F)c(-c5cncc(S(C)(=O)=O)c5)n4)CC3)cn2)cn1 [Example 826, 4,4-difluoro-N-(trans-4-((4-(5-(methanesulfonyl)pyridin-3-yl)-5-(trifluoromethyl)pyrimidin-2-yl)amino)cyclohexyl)-N-(5-(2-methoxypyrimidin-5-yl)pyrazin-2-yl)butanamide]	98%
109%	CCOCC(=O)N(c1cnc(-c2cnc(OC)nc2)cn1)[C@H]1CC[C@H](Nc2ncc(C(F)(F)F)c(-c3cncc(S(C)(=O)=O)c3)n2)CC1 [Example 827, 2-ethoxy-N-(trans-4-((4-(5-(methanesulfonyl)pyridin-3-yl)-5-(trifluoromethyl)pyrimidin-2-yl)amino)cyclohexyl)-N-(5-(2-methoxypyrimidin-5-yl)pyrazin-2-yl)acetamide]	99%
107%	CCOCC(=O)N(c1cnc(-c2cnn(C)c2)cn1)[C@H]1CC[C@H](Nc2ncc(C(F)(F)F)c(-c3cncc(S(C)(=O)=O)c3)n2)CC1 [Example 831, 2-ethoxy-N-(trans-4-((4-(5-(methanesulfonyl)pyridin-3-yl)-5-(trifluoromethyl)pyrimidin-2-yl)amino)cyclohexyl)-N-(5-(1-methyl-1H-pyrazol-4-yl)pyrazin-2-yl)acetamide]	99%
